# Measurements published in patent US20250241906A1, “ANABOLIC DRUGS STIMULATING TYPE II COLLAGEN PRODUCTION FROM CHONDROCYTES OR THEIR PROGENITORS” (UNIVERSITY OF CENTRAL FLORIDA RESEARCH FOUNDATION, INC., priority 2022, published 2025).
# Columns and labels:
# [1] = tested on: NF-κB and JAK2/STAT3 signaling; settings: monolayer culture; cited from earlier work
# [2] = tested on: cartilage (destabilized meniscus model); settings: cited from earlier work
# [3] = molecular target: type II collagen promoter (COL2A1-GLuc) in primary rabbit chondrocytes; assay: COL2A1-GLuc primary rabbit chondrocyte 3D aggregate luciferase assay; assay type: cell-based; settings: 0-10 ng/ml
# Method: Chondrogenic Culture. Rabbit COL2A1-GLuc were thawed and seeded in growth media at 6000 cells/cm^2 and expanded to 90-100% confluence in physioxia. Cells were trypsinized (0.25% Trypsin/EDTA; Corning), resuspended in basal chondrogenic media (93.24% High-Glucose DMEM (Gibco), 1% dexamethasone 10^−5 M (Sigma), 1% ITS+premix (Becton-Dickinson), 1% Glutamax (Hyclone), 1% 100 mM Sodium Pyruvate (Hyclone), 1% MEM Non-Essential Amino Acids (Hyclone), 0.26% L-Ascorbic Acid Phosphate 50 mM (Wako), 0.5% Fungizone (Life Technologies) with TGF-β1 (Peprotech) and seeded as described below.
# Generation and Maintenance of 3D Aggregates. To generate 3D aggregates, cells were seeded at 50,000 cells per well (in 96-well cell repellent u-bottom plates, GreinerBio) and then centrifuged at 500 RCF, 5 min. For the TGF-β1 dose response studies, that serve as positive controls for the reporter cells, aggregates were cultured in basal chondrogenic media and different concentrations of TGF-β1 ranging from 0-10 ng/ml. For the DoE studies, aggregates were cultured in basal chondrogenic media (1 ng/ml TGF-β1) as a control or basal media supplemented with vitamins and minerals (Table 3 and Table 5). Plates were cultured for three weeks in physioxia, media was sampled and replaced three times a week with respective medium. An OT-2 (Opentrons) python coded robotic pipette, programmed at an aspiration height of 2 mm from the bottom of the wells and aspiration rate of 40 μl/s was utilized for media preparation, cell feeding, and media sampling for luciferase assay. After three weeks, cell aggregates were either fixed in neutral buffered formalin for histology or medium removed and aggregates frozen dry (−20° C.) for biochemical assays.
# (§1) Luciferase Assay. Cell culture medium sampled from the seeded 96-wells (20 μL/well) was assessed using a stabilized Gaussia Luciferase buffer at a final concentration of 0.09 M MES, 0.15M Ascorbic Acid, and 4.2 μM Coelenterazine in white 96-well plates. Luminescence was measured in a plate reader (25° C., relative light units, En Vision plate reader). An OT-2 (Opentrons) python coded robotic pipette was utilized for luciferase buffer addition to white plates (GreinerBio).
# [4] = molecular target: PRG4 (lubricin) promoter in primary human chondrocytes; assay: HuPRG4gLuc aggregate lubricin promoter-driven Gaussia luciferase assay, TGFβ1 dose response; assay type: cell-based; settings: 0-40 ng/mL
# Method: HuPRG4gLuc reporter cell aggregate culture and TGFβ1 dose response. HuPRG4gLuc reporter chondrocytes were thawed from frozen stocks and seeded onto synoviocyte derived matrix coated flasks to expand to confluence (˜5 days, 37° C., 5% CO2 and 5% O2). Upon confluence, cells were trypsinized (0.25% Trypsin/EDTA, 5 min, 37° C.), neutralized with growth media (DMEM/F12 (Gibco) supplemented with 10% FBS (mesenchymal stromal cell selected and 1% penicillin-streptomycin (Hyclone)), then centrifuged (5 min, 500 RCF, room temperature [RT]). Cells were then resuspended in defined chondrogenic media (DMEM-HG 93.24% (Lonza), 1% 10^−5 M dexamethasone (Sigma), 1% ITS+premix (Becton-Dickinson), 1% Glutamax (Hyclone), 1% 100 mM Sodium Pyruvate (Hyclone), 1% MEM Non-Essential Amino Acids (Hyclone), 0.26% 50 mM L-Ascorbic Acid Phosphate (Wako), 0.5% Fungizone (Life Technologies)), and seeded (50,000 cells/well) onto a non-adherent 96-well plate (Greiner Bio), then centrifuged to form cell aggregates (5 min, 500 RCF, RT). […] Media containing the secreted Gaussia luciferase was sampled twice a week for luminescence (section 2.3). […]
# Luciferase assessment. As previously described, during the 22-day culture period, luminescence was assessed twice a week. […] Luminescence was read on a plate reader (PerkinElmer EnVision 2104 Multilabel Reader.
# [5] = tested on: HuPRG4gLuc aggregates; assay: Biochemical assays on HuPRG4gLuc aggregates; assay type: cell-based, human; settings: day 22
# Method: Biochemical assays. As previously described, frozen samples were digested in papain (0.025 mg/mL papain in 50 mM sodium phosphate, 2 mM EDTA, 2 mM cysteine) overnight. Hoechst dye was used to quantify the DNA content of the digest, with calf thymus DNA (Sigma) as the standard. Samples were read on a plate reader (Ex365, Em460 nm, SpectraMax iD5, Molecular Devices). Dimethylmethylene blue (5 ml of 3.2 mg/mL DMMB dissolved in 200 proof ethanol added to 1L of 40 mM glycine, 40 mM NaCl at pH 1.5) colorimetric assay was used to quantify GAG content of the digest with absorbance readings at 525 nm and 595 nm (correction). Hydroxyproline (HDP) content was measured for total collagen quantification. Papain digested samples were acid hydrolyzed overnight (10:1 vol/vol, 6M HCl, 110° C.) and then dried overnight (70° C.). Copper sulfate (0.15M) and NaOH (2.5M) were added and incubated (50° C., 5 minutes). Oxidation occurred through 10-minute incubation with hydrogen peroxide (6% H2O2, 50° C.). Sulfuric acid was added (1.5M H2SO4) prior to reaction with Ehrlich's reagent (10% w/v 4-dimethylamino benzaldehyde in 60% isopropanol, 26% perchloric acid, 14% MΩ water) for a final incubation (70° C., 16 minutes). Absorbance was read at 505 nm (SpectraMax iD5, Molecular Devices) with hydroxyproline standard curve generated using hydroxyproline (Sigma). […]
# [6] = molecular target: type II collagen promoter (COL2A1-Gaussia luciferase) in primary human chondrocytes; assay: HuCol2gLuc 3D aggregate type II collagen promoter-driven Gaussia luciferase assay; assay type: cell-based; settings: HuCol2gLuc
# Method: Chondrogenic Culture. Human COL2A1-GLuc or uninfected cells were thawed and seeded in growth media on synoviocyte matrix at 6,000 cells/cm^2 and expanded to 90-100% confluence in physioxia. Cells were trypsinized (0.25% Trypsin/EDTA; Corning), resuspended in growth media (for monolayer culture) or chondrogenic differentiation media for 3D aggregates (93.24% High-Glucose DMEM (Gibco), 1% dexamethasone 10^−5M (Sigma), 1% ITS+premix (Becton-Dickinson), 1% Glutamax (Hyclone), 1% 100 mM Sodium Pyruvate (Hyclone), 1% MEM Non-Essential Amino Acids (Hyclone), 0.26% L-Ascorbic Acid Phosphate 50 mM (Wako), 0.5% Fungizone (Life Technologies) with TGF-β1 (Peprotech) and seeded as described below.
# Generation and Maintenance of 3D aggregates. To generate 3D aggregates, cells were seeded at 50,000 cells per well (in 96-well cell repellent u-bottom plates, GreinerBio) and then centrifuged at 500 RCF, 5 min. For the initial drug screen, aggregates were cultured in basal chondrogenic media (1 ng/ml TGF-β1) alone, with DMSO (vehicle control) or 5 μM of the drug compounds from the NCI library (Natural Products V, NCI). For candidate validation and subsequent studies aggregates were cultured in basal chondrogenic media (10 ng/ml TGF-β1) alone, with DMSO (vehicle control) or compounds as indicated in the results. Aggregates were cultured for three weeks in physioxic conditions, culture medium was sampled and replaced three times a week with fresh medium. An OT-2 (Opentrons) python coded robotic pipette, programmed at an aspiration height of 2 mm from the bottom of the wells and aspiration rate of 40 μl/s was utilized for addition of compound, cell feeding, and media sampling for luciferase assay. After three weeks, cell aggregates were either fixed in neutral buffered formalin for histology or medium removed and aggregates frozen dry (−20° C.) for biochemical assays.
# as §1, with “Assay. Conditioned” for “Assay. Cell”, “from aggregates in” for “from the seeded”, “buffer mix (50 µl/well) for” for “buffer at”, “light units (RLU),” for “light units,”
Compound,NF-κB and JAK2/STAT3 signaling [1],decrease in OARSI score [2] [%],EC50 luminescence ([3]; Day 7) [ng/mL],EC50 luminescence ([3]; Day 21) [ng/mL],EC50 luminescence ([4]; day 10) [ng/mL],EC50 luminescence ([4]; day 22) [ng/mL],EC50 DNA [5] [ng/mL],EC50 GAG/DNA [5] [ng/mL],"EC50 luminescence ([6]; donor 2, day 7) [ng/mL]","EC50 luminescence ([6]; donor 2, day 21) [ng/mL]","EC50 luminescence ([6]; first donor, day 8, 0-100 ng/ml) [ng/mL]","EC50 luminescence ([6]; first donor, day 17) [ng/mL]"
NCCc1ccc(O)c(O)c1 [dopamine],inhibition of NF-κB and JAK2/STAT3 signaling,50,–,–,–,–,–,–,–,–,–,–
"TGFβ1: transforming growth factor beta 1, known stimulator of chondrogenesis, type II collagen and lubricin [reference compound]",–,–,0.17,0.10,2.5,4.2,2.8,4.8,0.142,1.868,0.780,2.702
